# Test results published in ChEMBL document CHEMBL5052835, “Slc26a3 inhibitors and use thereof” (2021).
# Calls of active or inactive are those of the source. The rule behind the calls is not given here.
# What was measured:
# Chloride anion exchanger = target: T1, Chloride anion exchanger (Mus musculus, UniProt Q9WVC8); assay: Inhibition of mouse Slc26a3 transfected in rat FRT cells preincubated with forskolin, 8-Br-cGMP and PMA and measured by fluorescence assay; format: cell-based
# T1 sequence (Q9WVC8 whole entry): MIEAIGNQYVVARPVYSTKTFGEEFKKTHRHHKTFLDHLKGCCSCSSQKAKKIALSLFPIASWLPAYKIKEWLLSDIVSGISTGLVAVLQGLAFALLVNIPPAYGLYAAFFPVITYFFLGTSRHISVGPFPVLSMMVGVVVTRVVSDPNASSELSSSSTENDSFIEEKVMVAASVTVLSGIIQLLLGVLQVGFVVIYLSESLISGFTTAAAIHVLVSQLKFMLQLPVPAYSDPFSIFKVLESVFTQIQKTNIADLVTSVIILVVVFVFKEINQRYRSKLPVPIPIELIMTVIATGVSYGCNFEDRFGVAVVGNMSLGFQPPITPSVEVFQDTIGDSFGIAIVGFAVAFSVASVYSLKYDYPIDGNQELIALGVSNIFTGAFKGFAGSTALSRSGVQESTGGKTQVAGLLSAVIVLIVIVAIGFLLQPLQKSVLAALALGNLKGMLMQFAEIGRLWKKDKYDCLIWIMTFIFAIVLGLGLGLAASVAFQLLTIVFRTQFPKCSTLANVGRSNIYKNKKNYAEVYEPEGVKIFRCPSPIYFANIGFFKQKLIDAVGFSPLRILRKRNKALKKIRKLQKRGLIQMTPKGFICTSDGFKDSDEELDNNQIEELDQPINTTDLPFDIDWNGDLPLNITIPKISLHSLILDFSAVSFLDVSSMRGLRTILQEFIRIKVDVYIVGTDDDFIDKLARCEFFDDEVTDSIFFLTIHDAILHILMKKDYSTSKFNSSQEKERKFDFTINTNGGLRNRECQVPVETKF
# Mus musculus [1] = assay: In vivo inhibition of slc26a3 in loperamide-induced constipation model of female CD-1 mouse at 5 mg/kg, po assessed as reduction in stool water content; format: functional, organism-based
# Mus musculus [2] = assay: In vivo inhibition of slc26a3 in loperamide-induced constipation model of female CD-1 mouse at 5 mg/kg, po assessed as reduction in pellet number; format: functional, organism-based
# Mus musculus [3] = assay: In vivo inhibition of slc26a3 in loperamide-induced constipation model of female CD-1 mouse at 5 mg/kg, po assessed as reduction in stool weight; format: functional, organism-based
# Mus musculus [4] = assay: In vivo inhibition of […] in loperamide-induced constipation model of female CD-1 mouse at 5 mg/kg, po assessed as reduction in stool water content; format: functional, organism-based
# Mus musculus [5] = assay: In vivo inhibition of […] in loperamide-induced constipation model of female CD-1 mouse at 5 mg/kg, po assessed as reduction in pellet number; format: functional, organism-based
# Colon = assay: Inhibition of fluid absorption in distal colonic loop isolated from female CD-1 mouse at 10 uM assessed as effect on reduction in loop weight/length ratio; format: functional, tissue-based
# Mus musculus [6] = assay: In vivo inhibition of […] in loperamide-induced constipation model of female CD-1 mouse at 5 mg/kg, po assessed as reduction in stool weight; format: functional, organism-based
# Mus musculus [7] = assay: In vivo inhibition of slc26a3 in loperamide-induced constipation model of female CD-1 mouse at 1 to 10 mg/kg, po assessed as reduction in stool weight; format: functional, organism-based; conditions: dose 1-10 mg/kg
# [8] = Toxicity in loperamide-induced constipation model of female CD-1 mouse at 10 mg/kg, po assessed as effect on stool parameters; format: organism-based; conditions: in vivo
# Mus musculus [9] = assay: In vivo inhibition of slc26a3 in loperamide-induced constipation model of female CD-1 mouse at 1 to 10 mg/kg, po assessed as reduction in stool water content; format: functional, organism-based; conditions: dose 1-10 mg/kg
# [10] = Toxicity in loperamide-induced constipation model of female CD-1 mouse at 10 mg/kg, po assessed as diarrhea; format: organism-based; conditions: in vivo
# Mus musculus [11] = assay: In vivo inhibition of slc26a3 in loperamide-induced constipation model of female CD-1 mouse at 1 to 10 mg/kg, po assessed as reduction in pellet number; format: functional, organism-based; conditions: dose 1-10 mg/kg
# Mus musculus [12] = assay: Inhibition of oxalate absorption in sodium oxalate-induced acute hyperoxaluria mouse model at 10 mg/kg, ip; format: functional, organism-based
# Mus musculus [13] = species on record: Mus musculus; assay: Inhibition of oxalate absorption in high oxalate and low calcium diet-induced oxalate nephropathy model of mouse assessed as normalization of creatinine level; format: functional, organism-based
IC50 (Chloride anion exchanger; read-out: IC50) [nM],Compound,other results
6400,Cc1cccc(-n2ccnc2SCC(=O)Nc2ccc(Br)cc2)c1,
6200,Cc1cccc(-n2ccnc2SCC(=O)Nc2ccc(Cl)cc2)c1,
7400,O=C(CSc1nccn1-c1ccc(Cl)cc1)Nc1ccc([N+](=O)[O-])cc1,
3500,CCc1ccc(NC(=O)CSc2nccn2-c2cccc(C)c2C)cc1,
1900,COc1ccc(-n2ccnc2SCC(=O)Nc2ccc(Br)cc2)cc1,
2600,O=C(CSc1nccn1-c1ccc(F)cc1)Nc1ccc(Cl)c(Cl)c1,
1800,O=C(CSc1nccn1-c1ccc(Cl)cc1)Nc1ccc(Br)cc1,
4600,Cc1cc(C)cc(-n2ccnc2SCC(=O)Nc2ccc(Cl)cc2)c1,
5700,CCc1ccc(NC(=O)CSc2nccn2-c2ccc(Cl)cc2)cc1,
1700,O=C(CSc1nccn1-c1ccc(Cl)cc1)Nc1ccc(Cl)cc1,
1700,CCOc1ccc(-n2ccnc2SCC(=O)Nc2ccc(Cl)cc2)cc1,
12000,O=C(CSc1nccn1-c1ccc(Cl)cc1)Nc1cccc(C(F)(F)F)c1,
11000,Cc1ccc(NC(=O)CSc2nccn2-c2ccc(Cl)cc2)cc1Cl,
1600,Cc1ccc(NC(=O)CSc2nccn2-c2ccc(Cl)cc2)cc1,
7100,COc1cccc(-n2ccnc2SCC(=O)Nc2ccc(C)cc2)c1,
1500,Cc1ccc(NC(=O)CSc2nccn2-c2ccccc2)cc1Cl,
2900,O=C(CSc1nccn1-c1cccc(Cl)c1)Nc1ccc(Cl)c(Cl)c1,
6500,CCc1ccc(NC(=O)CSc2nccn2-c2ccc(OC)cc2)cc1,
2200,O=C(CSc1nccn1-c1cccc(Cl)c1)Nc1ccc(Cl)cc1,

# Second part, the compound before the results:
Compound,IC50 (Chloride anion exchanger; read-out: IC50) [nM],other results
Cc1cccc(COc2ccc3c(C)c(CC(=O)O)c(=O)oc3c2C)c1,480,
Cc1c(CC(=O)O)c(=O)oc2c(C)c(OCc3cccc(Cl)c3)ccc12,200,
Cc1c(CCC(=O)O)c(=O)oc2c(C)c(OCc3ccc(F)cc3)ccc12,,IC50 (Chloride anion exchanger; frt): Not Active
Cc1c(CC(=O)O)c(=O)oc2c(C)c(OCc3ccc(C(C)(C)C)cc3)ccc12,4600,
Cc1cc(C)cc(COc2ccc3c(C)c(CC(=O)O)c(=O)oc3c2C)c1,540,
Cc1cc(C)cc(-n2ccnc2SCC(=O)Nc2ccc(Cl)c(Cl)c2)c1,2500,
COC(=O)CCc1c(C)c2ccc(OCc3cccc(OC)c3)c(C)c2oc1=O,,IC50 (Chloride anion exchanger; frt): Not Active
Cc1c(CC(=O)O)c(=O)oc2c(C)c(OCc3cccc(F)c3)ccc12,840,
Cc1ccc2ccccc2c1COc1ccc2c(C)c(CCC(=O)O)c(=O)oc2c1C,,IC50 (Chloride anion exchanger; frt): Not Active
COC(=O)CCc1c(C)c2ccc(OCc3ccc(C(C)(C)C)cc3)c(C)c2oc1=O,,IC50 (Chloride anion exchanger; frt): Not Active
CCCCCOc1ccc2c(C)c(CC(=O)O)c(=O)oc2c1C,1200,
Cc1cc(C)cc(-n2ccnc2SCC(=O)Nc2ccc(C)c(Cl)c2)c1,2100,
Cc1c(CC(=O)O)c(=O)oc2c(C)c(OCc3cccc(C(F)(F)F)c3)ccc12,,inhibition (Mus musculus [1]): Active; inhibition (Mus musculus [2]): Active; inhibition (Mus musculus [3]): Active
Cc1c(CC(=O)O)c(=O)oc2c(C)c(OCc3ccccc3F)ccc12,510,
CN1Cc2c(Cl)cc(Cl)cc2[C@H](c2cccc(S(=O)(=O)NCCOCCOCCNC(=O)NCCCCNC(=O)NCCOCCOCCNS(=O)(=O)c3cccc([C@@H]4CN(C)Cc5c(Cl)cc(Cl)cc54)c3)c2)C1,,inhibition (Mus musculus [4]): Active; inhibition (Mus musculus [5]): Active; inhibition (Colon): inactive; inhibition (Mus musculus [6]): Active
Cc1c(CC(=O)O)c(=O)oc2c(C)c(OCc3cccc(I)c3)ccc12,,inhibition (Mus musculus [7]): Active; Activity [8]: Non-Toxic; inhibition (Mus musculus [9]): Active; Activity [10]: Non-Toxic; inhibition (Mus musculus [11]): Active; inhibition (Mus musculus [12]): Active; inhibition (Mus musculus [13]): Active
